Data from patent publication US20240409585A1, “MACROCYCLIC IMMUNOMODULATORS” (priority 2021, published 2024).
Where two headings read alike, the source gives them in different places. Bridge positions count the residues as written; N and C are the ends. Square brackets hold non-standard residues; d marks the D form. Peptide text beside a SMILES is read from it. * marks the point of attachment. ξ: configuration not given here. Phe(3-CF3) = N[C@@H](Cc1cccc(C(F)(F)F)c1)C(=O)O; Ala(morpholin-4-yl) = N[C@@H](CN1CCOCC1)C(=O)O; Phe(4-COOH) = N[C@@H](Cc1ccc(C(=O)O)cc1)C(=O)O; dPhe(3,4-F2) = N[C@H](Cc1ccc(F)c(F)c1)C(=O)O; Bip = N[C@@H](Cc1ccc(-c2ccccc2)cc1)C(=O)O; Phe(3-Me) = Cc1cccc(C[C@H](N)C(=O)O)c1; Val(3-OH) = CC(C)(O)[C@H](N)C(=O)O; aIle = CC[C@@H](C)[C@H](N)C(=O)O; hArg = N=C(N)NCCCC[C@H](N)C(=O)O; 3Pal = N[C@@H](Cc1cccnc1)C(=O)O; Cha = N[C@@H](CC1CCCCC1)C(=O)O; Cit = NC(=O)NCCC[C@H](N)C(=O)O; Ile(3ξ) = CCC(C)[C@H](N)C(=O)O; Thr(3ξ) = CC(O)[C@H](N)C(=O)O; Ala(CN) = N#CC[C@H](N)C(=O)O; dPip = O=C(O)[C@H]1CCCCN1; Carboxymethyl = O=C(O)C*; NMeA = CN[C@@H](C)C(=O)O; Dab = NCC[C@H](N)C(=O)O; Dap = NC[C@H](N)C(=O)O; ξV = CC(C)C(N)C(=O)O

Biological target: T1, PE-labeled human PD-L1-Ig binding to Jurkat cell line over-expressing human PD-1 (Jurkat-PD-1) (Homo sapiens, UniProt Q15116)
T1 construct: expressed in transfected cells; host or cells: Jurkat
T1 sequence (Q15116 25-288): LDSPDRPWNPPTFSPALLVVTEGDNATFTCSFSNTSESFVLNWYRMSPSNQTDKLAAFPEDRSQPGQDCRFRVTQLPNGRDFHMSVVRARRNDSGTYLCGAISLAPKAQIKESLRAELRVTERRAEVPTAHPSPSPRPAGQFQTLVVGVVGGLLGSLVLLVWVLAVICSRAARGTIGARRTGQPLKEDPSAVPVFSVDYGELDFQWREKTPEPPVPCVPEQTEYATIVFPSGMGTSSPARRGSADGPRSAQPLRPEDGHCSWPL
Experiment: Jurkat-PD-1 Cell Binding High-Content Screening Assay (CBA): Method 1

[1] = Jurkat-hPD-1 cells, PE-labeled PD-L1-Ig 20 nM final, read-out: Jurkat HPDL1 PD1 IC50 (uM) (Method 1)

SMILES | IC50 [1] [nM] | IC50 (Jurkat HPDL1 PD1 IC50 (Method 1), cells printed in nM) [nM]
CC(C)C[C@H]1NC(=O)[C@H](C)N(C)C(=O)[C@H](Cc2ccc(C(=O)O)cc2)NC(=O)[C@H](Cc2ccc(-c3ccccc3)cc2)NC(=O)[C@H](Cc2ccc(C(=O)O)cc2)NC(=O)[C@H](Cc2cccc(C(F)(F)F)c2)NC(=O)[C@H](CC(=O)O)NC(=O)[C@H](Cc2ccc(C(=O)O)cc2)NC(=O)[C@H](CN2CCOCC2)NC(=O)CSC[C@@H](C(=O)N[C@@H](CCN)C(N)=O)NC(=O)[C@H](CCC(=O)O)NC(=O)[C@H](C(C)C)NC(=O)[C@H](CC2CCCCC2)NC(=O)[C@H](CCN)NC1=O [Example 2268] ({CH2CO}-[Ala(morpholin-4-yl)][Phe(4-COOH)]D[Phe(3-CF3)][Phe(4-COOH)][Bip][Phe(4-COOH)][NMeA][dL][Dab][Cha]VEC[Dab]-NH2; thioether N-14) |  | 1.3
CC(C)C[C@@H]1NC(=O)[C@H](CCN)NC(=O)[C@@H](CC(C)C)NC(=O)[C@H](C)N(C)C(=O)[C@H](CCCNC(=N)N)NC(=O)[C@H](Cc2ccc(-c3ccccc3)cc2)NC(=O)[C@H](C(C)C)NC(=O)[C@H](Cc2c[nH]c3ccccc23)NC(=O)[C@H](CC(=O)O)NC(=O)[C@H](Cc2ccc(O)cc2)NC(=O)[C@H](CC(N)=O)NC(=O)CSC[C@@H](C(=O)NCC(N)=O)NC(=O)[C@H](CO)NC(=O)[C@H](C(C)C)NC1=O [Compound 1247] ({CH2CO}-NYDWV[Bip]R[NMeA][dL][Dab]LVSCG-NH2; thioether N-14) | 60 | 
Cc1cccc(C[C@@H]2NC(=O)[C@H](CC(=O)O)NC(=O)[C@H](Cc3ccc(OCC(=O)O)cc3)NC(=O)[C@H](C(C)O)NC(=O)CSC[C@@H](C(N)=O)NC(=O)[C@H](C(C)O)NC(=O)[C@H](C(C)C)NC(=O)[C@H](CC3CCCCC3)NC(=O)[C@H](CCN)NC(=O)[C@@H](CC(C)C)NC(=O)[C@H](C)N(C)C(=O)[C@H](Cc3ccc(OCC(=O)O)cc3)NC(=O)[C@H](Cc3ccc(-c4ccccc4)cc3)NC(=O)[C@H](Cc3ccc(C(=O)O)cc3)NC2=O)c1 (stereo partly drawn) [Compound 2249] ({CH2CO}-[Thr(3ξ)]Y(Carboxymethyl)D[Phe(3-Me)][Phe(4-COOH)][Bip]Y(Carboxymethyl)[NMeA][dL][Dab][Cha]V[Thr(3ξ)]C-NH2; thioether N-14) | 80 | 
CC(C)C[C@@H]1NC(=O)[C@H](CCN)NC(=O)[C@@H](CC(C)C)NC(=O)[C@H](C)N(C)C(=O)[C@H](CCCNC(=N)N)NC(=O)[C@H](Cc2ccc(-c3ccccc3)cc2)NC(=O)[C@H](C(C)C)NC(=O)[C@H](Cc2c[nH]c3ccccc23)NC(=O)[C@H](CC(=O)O)NC(=O)[C@H](Cc2ccc(O)cc2)NC(=O)[C@H](CCCCNC(=N)N)NC(=O)CSC[C@@H](C(=O)N[C@@H](C)C(N)=O)NC(=O)[C@H]([C@@H](C)O)NC(=O)[C@H](C(C)C)NC1=O [Compound 1344] ({CH2CO}-[hArg]YDWV[Bip]R[NMeA][dL][Dab]LVTCA-NH2; thioether N-14) | 70 | 
CC(C)C[C@@H]1NC(=O)[C@H](CCCCN)NC(=O)[C@@H](CC(C)C)NC(=O)[C@H](C)N(C)C(=O)[C@H](Cc2cnc[nH]2)NC(=O)[C@H](Cc2ccc(-c3ccccc3)cc2)NC(=O)[C@H](C(C)C)NC(=O)[C@H](Cc2c[nH]c3ccccc23)NC(=O)[C@H](CC(=O)O)NC(=O)[C@H](Cc2ccc(O)cc2)NC(=O)[C@H](CC(N)=O)NC(=O)CSC[C@@H](C(=O)N[C@@H](C)C(N)=O)NC(=O)[C@H](CO)NC(=O)[C@H](C(C)C)NC1=O [Compound 1482] ({CH2CO}-NYDWV[Bip]H[NMeA][dL]KLVSCA-NH2; thioether N-14) | 110 | 
Cc1cccc(C[C@@H]2NC(=O)[C@H](Cc3cccnc3)NC(=O)CSC[C@@H](C(=O)NCC(N)=O)NC(=O)[C@H](CO)NC(=O)[C@H](C(C)C)NC(=O)[C@H](CC(C)C)NC(=O)[C@H](CC(N)=O)NC(=O)[C@@H](CC(C)C)NC(=O)[C@H](C)N(C)C(=O)[C@H](C(C)C)NC(=O)[C@H](Cc3ccc(-c4ccccc4)cc3)NC(=O)[C@H](CC(C)C)NC(=O)[C@H](Cc3c[nH]c4ccccc34)NC(=O)[C@H](CC(=O)O)NC2=O)c1 [Compound 1520] ({CH2CO}-[3Pal][Phe(3-Me)]DWL[Bip]V[NMeA][dL]NLVSCG-NH2; thioether N-14) | 10 | 
Cc1cccc(C[C@@H]2NC(=O)[C@H](CC(=O)O)NC(=O)[C@H](Cc3ccc(C(=O)O)cc3)NC(=O)[C@H](Cc3ccc(OCC(=O)O)cc3)NC(=O)CSC[C@@H](C(=O)N[C@@H](C)C(N)=O)NC(=O)[C@H]([C@@H](C)O)NC(=O)[C@H](C(C)C)NC(=O)[C@H](CC(C)C)NC(=O)[C@H](CCN)NC(=O)[C@@H](CC(C)C)NC(=O)[C@H](C)N(C)C(=O)[C@H](CCCNC(N)=O)NC(=O)[C@H](Cc3ccc(-c4ccccc4)cc3)NC(=O)[C@H](C(C)C)NC2=O)c1 [Compound 1574] ({CH2CO}-Y(Carboxymethyl)[Phe(4-COOH)]D[Phe(3-Me)]V[Bip][Cit][NMeA][dL][Dab]LVTCA-NH2; thioether N-14) | 20 | 
CC(C)C[C@@H]1NC(=O)[C@H](CCN)NC(=O)[C@@H](CC(C)C)NC(=O)[C@H](C)N(C)C(=O)[C@H](C(C)C)NC(=O)[C@H](Cc2ccc(-c3ccccc3)cc2)NC(=O)[C@H](C(C)C)NC(=O)[C@H](Cc2c[nH]c3ccccc23)NC(=O)[C@H](CC(=O)O)NC(=O)[C@H](Cc2ccc(O)cc2)NC(=O)[C@H](CN)NC(=O)CSC[C@@H](C(=O)N[C@@H](C)C(N)=O)NC(=O)[C@H]([C@@H](C)O)NC(=O)[C@H](C(C)C)NC1=O [Compound 1360] ({CH2CO}-[Dap]YDWV[Bip]V[NMeA][dL][Dab]LVTCA-NH2; thioether N-14) | 20 | 
CCC(C)[C@@H]1NC(=O)[C@H](Cc2ccc(-c3ccccc3)cc2)NC(=O)[C@H](CC(C)C)NC(=O)[C@H](Cc2c[nH]c3ccccc23)NC(=O)[C@H](CC(=O)O)NC(=O)[C@H](Cc2ccc(OCC(=O)O)cc2)NC(=O)[C@H](C(C)O)NC(=O)CSC[C@@H](C(=O)N[C@@H](CC(N)=O)C(=O)O)NC(=O)[C@H](CC#N)NC(=O)[C@H](C(C)C)NC(=O)[C@H](CC(C)C)NC(=O)[C@H](CCN)NC(=O)[C@@H](CC(C)C)NC(=O)[C@H](C)N(C)C1=O (stereo partly drawn) [Compound 2226] ({CH2CO}-[Thr(3ξ)]Y(Carboxymethyl)DWL[Bip][Ile(3ξ)][NMeA][dL][Dab]LV[Ala(CN)]CN-OH; thioether N-14) | 60 | 
CC(C)C[C@@H]1NC(=O)[C@H](CCN)NC(=O)[C@@H](CC(C)C)NC(=O)[C@H]2CCCCN2C(=O)[C@H](C(C)C)NC(=O)[C@H](Cc2ccc(-c3ccccc3)cc2)NC(=O)[C@H](C(C)C)NC(=O)[C@H](Cc2c[nH]c3ccccc23)NC(=O)[C@H](CC(=O)O)NC(=O)[C@H](Cc2ccc(O)cc2)NC(=O)[C@H](CC(N)=O)NC(=O)CSC[C@@H](C(=O)N[C@@H](C)C(N)=O)NC(=O)[C@H]([C@@H](C)O)NC(=O)[C@H](C(C)C)NC1=O [Compound 1268] ({CH2CO}-NYDWV[Bip]V[dPip][dL][Dab]LVTCA-NH2; thioether N-14) | 110 | 

Further compounds by falling IC50 [1], results first:

IC50 [1] [nM] | SMILES | IC50 (Jurkat HPDL1 PD1 IC50 (Method 1), cells printed in nM) [nM]
690 | CC(C)C[C@@H]1NC(=O)[C@H](CCCNC(=N)N)NC(=O)[C@@H](Cc2ccc(F)c(F)c2)NC(=O)[C@H](C)N(C)C(=O)[C@H](CCCNC(=N)N)NC(=O)[C@H](Cc2ccc(-c3ccccc3)cc2)NC(=O)[C@H](C(C)C)NC(=O)[C@H](Cc2c[nH]c3ccccc23)NC(=O)[C@H](CC(=O)O)NC(=O)[C@H](Cc2ccc(O)cc2)NC(=O)[C@H](Cc2ccccc2)NC(=O)CSC[C@@H](C(=O)N[C@@H](C)C(N)=O)NC(=O)[C@H]([C@@H](C)O)NC(=O)[C@H](C(C)C)NC1=O [Compound 1103] ({CH2CO}-FYDWV[Bip]R[NMeA][dPhe(3,4-F2)]RLVTCA-NH2; thioether N-14) | 
60 | CC[C@@H](C)[C@@H]1NC(=O)[C@H](Cc2ccc(-c3ccccc3)cc2)NC(=O)[C@H](CC(C)C)NC(=O)[C@H](Cc2c[nH]c3ccccc23)NC(=O)[C@H](CC(=O)O)NC(=O)[C@H](Cc2ccc(C(=O)O)cc2)NC(=O)[C@H](Cc2ccc(OCC(=O)O)cc2)NC(=O)CSC[C@@H](C(=O)N[C@@H](CCCCN)C(N)=O)NC(=O)[C@H](CC#N)NC(=O)C(C(C)C)NC(=O)[C@H](CC(C)C)NC(=O)[C@H](CC(N)=O)NC(=O)[C@@H](CC(C)C)NC(=O)[C@H](C)N(C)C1=O (stereo partly drawn) [Compound 2106] ({CH2CO}-Y(Carboxymethyl)[Phe(4-COOH)]DWL[Bip][aIle][NMeA][dL]NL[ξV][Ala(CN)]CK-NH2; thioether N-14) | 
20 | CC(C)C[C@@H]1NC(=O)[C@H](Cc2c[nH]c3ccccc23)NC(=O)[C@H](CC(=O)O)NC(=O)[C@H](Cc2ccc(OCC(=O)O)cc2)NC(=O)[C@H](Cc2ccccc2)NC(=O)CSC[C@@H](C(=O)N[C@@H](C)C(N)=O)NC(=O)[C@H](CO)NC(=O)[C@H](C(C)C)NC(=O)[C@H](CC(C)C)NC(=O)[C@H](CC(N)=O)NC(=O)[C@@H](C)NC(=O)[C@H](C)N(C)C(=O)[C@H](C(C)C)NC(=O)[C@H](Cc2ccc(-c3ccccc3)cc2)NC1=O [Compound 1737] ({CH2CO}-FY(Carboxymethyl)DWL[Bip]V[NMeA][dA]NLVSCA-NH2; thioether N-14) | 
20 | CC(C)C[C@@H]1NC(=O)[C@H](CCN)NC(=O)[C@@H](CC(C)C)NC(=O)[C@H]2CCCN2C(=O)[C@H](C(C)C)NC(=O)[C@H](Cc2ccc(-c3ccccc3)cc2)NC(=O)[C@H](C(C)C)NC(=O)[C@H](Cc2c[nH]c3ccccc23)NC(=O)[C@H](CC(=O)O)NC(=O)[C@H](Cc2ccc(O)cc2)NC(=O)[C@H](CC(N)=O)NC(=O)CSC[C@@H](C(=O)N[C@@H](C)C(N)=O)NC(=O)[C@H]([C@@H](C)O)NC(=O)[C@H](C(C)C)NC1=O [Compound 1279] ({CH2CO}-NYDWV[Bip]V[dP][dL][Dab]LVTCA-NH2; thioether N-14) | 
10 | CC(C)C[C@@H]1NC(=O)[C@H](Cc2c[nH]c3ccccc23)NC(=O)[C@H](CC(=O)O)NC(=O)[C@H](Cc2ccc(C(=O)O)cc2)NC(=O)[C@H](Cc2ccc(OCC(=O)O)cc2)NC(=O)CSC[C@@H](C(=O)N[C@@H](CCN)C(N)=O)NC(=O)[C@H](CO)NC(=O)[C@H](C(C)(C)O)NC(=O)[C@H](CC2CCCCC2)NC(=O)[C@H](CCN)NC(=O)[C@@H](CC(C)C)NC(=O)[C@H](C)N(C)C(=O)[C@H](C(C)(C)O)NC(=O)[C@H](Cc2ccc(-c3ccccc3)cc2)NC1=O [Compound 1716] ({CH2CO}-Y(Carboxymethyl)[Phe(4-COOH)]DWL[Bip][Val(3-OH)][NMeA][dL][Dab][Cha][Val(3-OH)]SC[Dab]-NH2; thioether N-14) | 
